Measured values: ChEMBL document CHEMBL1201862, “PubChem BioAssay data set” (2004)
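All cell lines were grown in 96-well plates and treated with compound for 48 hours. At the GI50, growth is halved.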 Calls of active or inactive are those of the source. Cut-off read from the data, not from the text of the source: active = GI50 up to about 1.1 µM and inactive = higher.

Assays:
Experiment in all cases: inhibition of tumour cell growth, NCI panel, 48 h
ACHN = test system: ACHN
CAKI-1 = test system: CAKI-1
HCC 2998 = test system: HCC 2998
HCT-116 = test system: HCT-116
KM12 = test system: KM12
MCF7 = test system: MCF7
MOLT-4 = test system: MOLT-4
NCI-H226 = test system: NCI-H226
NCI-H23 = test system: NCI-H23
NCI-H460 = test system: NCI-H460
NCI/ADR-RES = test system: NCI/ADR-RES
OVCAR-3 = test system: OVCAR-3
RPMI-8226 = test system: RPMI-8226
SF-268 = test system: SF-268
SK-MEL-2 = test system: SK-MEL-2
SK-OV-3 = test system: SK-OV-3
SNB-19 = test system: SNB-19
SR = test system: SR
SW-620 = test system: SW-620
U-251 = test system: U-251

What does the source list for CC(Cc1ccc2c(c1)OCO2)N(C)C(=O)C1=CCN(C)CC1 (stereo not given)?
GI50 (ACHN): > 100 µM (inactive); GI50 (CAKI-1): > 100 µM (inactive); GI50 (HCC 2998): > 100 µM (inactive); GI50 (HCT-116): > 100 µM (inactive); GI50 (KM12): > 100 µM (inactive); GI50 (MCF7): > 100 µM (inactive); GI50 (MOLT-4): > 100 µM (inactive); GI50 (NCI-H226): > 100 µM (inactive); GI50 (NCI-H23): > 100 µM (inactive); GI50 (NCI-H460): > 100 µM (inactive); GI50 (NCI/ADR-RES): > 100 µM (inactive); GI50 (OVCAR-3): > 100 µM (inactive); GI50 (RPMI-8226): > 100 µM (inactive); GI50 (SF-268): > 100 µM (inactive); GI50 (SK-MEL-2): > 100 µM (inactive); GI50 (SK-OV-3): > 100 µM (inactive); GI50 (SNB-19): > 100 µM (inactive); GI50 (SR): > 100 µM (inactive); GI50 (SW-620): > 100 µM (inactive); GI50 (U-251): > 100 µM (inactive)

What does the source list for COc1ccc(/C=c2/s/c(=C(\C#N)c3nc4ccccc4[nH]3)n(-c3ccccc3)c2=O)cc1?
GI50 (ACHN): > 82.4 µM (inactive); GI50 (CAKI-1): > 69.3 µM (inactive); GI50 (HCC 2998): > 82.8 µM (inactive); GI50 (HCT-116): 24.7 µM (inactive); GI50 (KM12): 56.6 µM (inactive); GI50 (MCF7): 45.1 µM (inactive); GI50 (MOLT-4): 53.6 µM (inactive); GI50 (NCI-H226): 16.9 µM (inactive); GI50 (NCI-H23): 22.6 µM (inactive); GI50 (NCI-H460): 9.75 µM (inactive); GI50 (NCI/ADR-RES): 5.06 µM (inactive); GI50 (OVCAR-3): 26.8 µM (inactive); GI50 (RPMI-8226): > 100 µM (inactive); GI50 (SF-268): 31.7 µM (inactive); GI50 (SK-MEL-2): > 77.6 µM (inactive); GI50 (SK-OV-3): 2.96 µM (inactive); GI50 (SNB-19): 47.1 µM (inactive); GI50 (SR): > 100 µM (inactive); GI50 (SW-620): 25.2 µM (inactive); GI50 (U-251): 48.1 µM (inactive)

For C=C(Cl)C(Br)(CCl)CCC(Br)C(C)(C)Cl (stereo not given), which GI50 (ACHN) is on record?
The GI50 was 7.96 µM (inactive).

What about the GI50 (CAKI-1) of the same compound?
The GI50 was 4.95 µM (inactive).

And the GI50 (HCC 2998)?
The GI50 was 14.1 µM (inactive).

What about the GI50 (HCT-116) of the same compound?
Its GI50 is 1.72 µM (inactive).

And the GI50 (KM12)?
Its GI50 is 6.87 µM (inactive).

What about the GI50 (MCF7) of the same compound?
The GI50 was 3.38 µM (inactive).

What about the GI50 (MOLT-4) of the same compound?
The GI50 was 1.6 µM (inactive).

What about the GI50 (NCI-H226) of the same compound?
The GI50 was 5.32 µM (inactive).

And the GI50 (NCI-H23)?
The GI50 was 3.75 µM (inactive).

What about the GI50 (NCI-H460) of the same compound?
The GI50 was 6.81 µM (inactive).

And the GI50 (NCI/ADR-RES)?
The GI50 was 3.17 µM (inactive).

What about the GI50 (OVCAR-3) of the same compound?
Its GI50 is 6.17 µM (inactive).

And the GI50 (RPMI-8226)?
Its GI50 is 2.06 µM (inactive).

And the GI50 (SF-268)?
Its GI50 is 2.93 µM (inactive).

And the GI50 (SK-MEL-2)?
The GI50 was 6.24 µM (inactive).

And the GI50 (SK-OV-3)?
Its GI50 is 14 µM (inactive).

What about the GI50 (SNB-19) of the same compound?
The GI50 was 3.48 µM (inactive).

And the GI50 (SR)?
The GI50 was 2.92 µM (inactive).

And the GI50 (SW-620)?
Its GI50 is 1.71 µM (inactive).

And the GI50 (U-251)?
Its GI50 is 7.24 µM (inactive).

Which GI50 (ACHN) does the source give for O=C1[C@@H]2[C@@H](CN3CN(c4ccccc4)N=C(c4ccccc4)[C@@]23c2ccccc2)C(=O)N1c1ccccc1 here?
The GI50 was 1.83 µM (inactive).

What about the GI50 (CAKI-1) of the same compound?
Its GI50 is 0.863 µM (active).

What about the GI50 (HCC 2998) of the same compound?
Its GI50 is 25.2 µM (inactive).

And the GI50 (HCT-116)?
The GI50 was 5.07 µM (inactive).

What about the GI50 (KM12) of the same compound?
The GI50 was 14.3 µM (inactive).

What about the GI50 (MCF7) of the same compound?
The GI50 was 1.94 µM (inactive).

And the GI50 (MOLT-4)?
Its GI50 is 2.84 µM (inactive).

What about the GI50 (NCI-H226) of the same compound?
The GI50 was 0.977 µM (active).

And the GI50 (NCI-H23)?
Its GI50 is 8.69 µM (inactive).

What about the GI50 (NCI-H460) of the same compound?
The GI50 was 19.8 µM (inactive).

What about the GI50 (NCI/ADR-RES) of the same compound?
The GI50 was 17.5 µM (inactive).

And the GI50 (OVCAR-3)?
Its GI50 is 7.73 µM (inactive).

What about the GI50 (RPMI-8226) of the same compound?
The GI50 was 1.61 µM (inactive).

And the GI50 (SF-268)?
The GI50 was 18.8 µM (inactive).

What about the GI50 (SK-MEL-2) of the same compound?
Its GI50 is 14.9 µM (inactive).

What about the GI50 (SK-OV-3) of the same compound?
The GI50 was 14 µM (inactive).

What about the GI50 (SNB-19) of the same compound?
The GI50 was 16.7 µM (inactive).

What about the GI50 (SR) of the same compound?
The GI50 was 2.61 µM (inactive).

And the GI50 (SW-620)?
Its GI50 is 2 µM (inactive).

What about the GI50 (U-251) of the same compound?
The GI50 was 8.99 µM (inactive).
